Data: the OPERA property sets (Mansouri et al. 2018)
Values after ≈ are worked out from the molar mass of the structure shown.

SMILES | solubility (25 °C) [mM] | other results
O=C(O)c1cccc(Cl)c1 | 2.87 (≈ 0.45 mg/mL) | 
O=C1c2cccc(S(=O)(=O)O)c2C(=O)c2cccc(S(=O)(=O)O)c21 | 1810 (≈ 666 mg/mL) | 
C=CC=O | 3780 (≈ 212 mg/mL) | 
CCN1C[C@]2(COC)[C@H](O)C[C@H](OC)[C@]34C1[C@H]([C@H](OC)[C@H]23)[C@]1(OC(C)=O)[C@H]2[C@@H](OC(=O)c3ccccc3)[C@](O)(C[C@H]24)[C@@H](OC)[C@@H]1O | 0.48 (≈ 0.31 mg/mL) | 
Nc1cccc([N+](=O)[O-])c1 |  | solubility (24 °C): 8.69 mM (≈ 1.2 mg/mL)
NC(N)=S | 1870 (≈ 142 mg/mL) | 
CC[C@H]1C[N@@]2CC[C@H]1C[C@H]2[C@H](O)c1ccnc2ccc(OC)cc12 | 0.888 (≈ 0.29 mg/mL) | 
O=C1NS(=O)(=O)c2ccccc21 | 21.8 (≈ 4 mg/mL) | 
Nc1ccc(N)cc1 |  | solubility (23 °C): 342 mM (≈ 37 mg/mL)
O=Cc1ccccc1[N+](=O)[O-] | 15.4 (≈ 2.32 mg/mL) | 
O=C1CC2CC[C@H]1C2 |  | solubility (20 °C): 17.5 mM (≈ 1.93 mg/mL)
O=Cc1cccc([N+](=O)[O-])c1 | 10.8 (≈ 1.63 mg/mL) | 
Cc1cc(O)c2c(O)c3c(O)cccc3cc2c1 | 0.874 (≈ 0.21 mg/mL) | 
CN1C2CCC1CC(OC(=O)c1ccccc1)C2 (stereo not drawn) | 6.93 (≈ 1.7 mg/mL) | 
O=C1c2cccc(S(=O)(=O)O)c2C(=O)c2c1cccc2S(=O)(=O)O | 18100 (≈ 6660 mg/mL) | 
CCN(CC)C(=O)CCC(=O)O | 161 (≈ 27.9 mg/mL) | 
NC(=O)c1ccccc1 | 111 (≈ 13.5 mg/mL) | 
O=[N+]([O-])OCC(CO[N+](=O)[O-])O[N+](=O)[O-] |  | solubility (20 °C): 6.08 mM (≈ 1.38 mg/mL)
O=C(O)c1ccccc1Cl | 13.3 (≈ 2.09 mg/mL) | 
O=C1C[C@@H]2OCC=C3CN4CC[C@]56c7ccccc7N1[C@H]5[C@H]2[C@H]3C[C@H]46 | 0.478 (≈ 0.16 mg/mL) | 
O=C1c2c(O)cccc2[C@H]([C@@H]2O[C@H](CO)[C@@H](O)[C@H](O)[C@H]2O)c2cc(CO)cc(O)c21 |  | solubility (20 °C): 19.8 mM (≈ 8.3 mg/mL)
CC(=O)Oc1ccc2c3c1O[C@H]1[C@@H](OC(C)=O)C=C[C@H]4[C@@H](C2)N(C)CC[C@@]341 | 1.61 (≈ 0.595 mg/mL) | 
CCCCCCCCCCC(C(=O)O)C(=O)O | 0.102 (≈ 0.025 mg/mL) | 
